Measured values as given in PubChem BioAssay (NCI).
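Step 1: Grow cells in 96-well plates. Step 2: Expose to compound for 48 hours at 5 concentrations. Step 3: Interpolate endpoints linearly; if unreached, use highest concentration. Definition used: TGI = concentration required for complete inhibition of growth.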

Columns and labels:
Experiment in all cases: growth of human tumour cells (NCI), 48 h
786-0 renal = test system: 786-0 renal
A498 renal = test system: A498 renal
A549 NSCLC = test system: A549 NSCLC
ACHN renal = test system: ACHN renal
BT-549 breast = test system: BT-549 breast
CAKI-1 renal = test system: CAKI-1 renal
COLO 205 colon = test system: COLO 205 colon
DU-145 prostate = test system: DU-145 prostate
EKVX NSCLC = test system: EKVX NSCLC
HCC-2998 colon = test system: HCC-2998 colon
HCT-116 colon = test system: HCT-116 colon
HCT-15 colon = test system: HCT-15 colon
HL-60(TB) leukemia = test system: HL-60(TB) leukemia
HOP-92 NSCLC = test system: HOP-92 NSCLC
HS 578T breast = test system: HS 578T breast
HT29 colon = test system: HT29 colon
IGROV1 ovarian = test system: IGROV1 ovarian
KM12 colon = test system: KM12 colon
LOX IMVI melanoma = test system: LOX IMVI melanoma
M14 melanoma = test system: M14 melanoma
MALME-3M melanoma = test system: MALME-3M melanoma
MCF7 breast = test system: MCF7 breast
MDA-MB-231 breast = test system: MDA-MB-231 breast
MDA-N = test system: MDA-N
NCI-H226 lung = test system: NCI-H226 lung
NCI-H23 lung = test system: NCI-H23 lung
NCI-H460 lung = test system: NCI-H460 lung
NCI-H522 lung = test system: NCI-H522 lung
NCI/ADR-RES ovarian = test system: NCI/ADR-RES ovarian
OVCAR-3 ovarian = test system: OVCAR-3 ovarian
OVCAR-4 ovarian = test system: OVCAR-4 ovarian
OVCAR-5 ovarian = test system: OVCAR-5 ovarian
OVCAR-8 ovarian = test system: OVCAR-8 ovarian
PC-3 prostate = test system: PC-3 prostate
RPMI-8226 leukemia = test system: RPMI-8226 leukemia
RXF 393 renal = test system: RXF 393 renal
SF-268 CNS = test system: SF-268 CNS
SF-295 CNS = test system: SF-295 CNS
SF-539 CNS = test system: SF-539 CNS
SK-MEL-28 melanoma = test system: SK-MEL-28 melanoma
SK-MEL-5 melanoma = test system: SK-MEL-5 melanoma
SK-OV-3 ovarian = test system: SK-OV-3 ovarian
SN12C renal = test system: SN12C renal
SNB-19 CNS = test system: SNB-19 CNS
SNB-75 CNS = test system: SNB-75 CNS
SW-620 colon = test system: SW-620 colon
T-47D breast = test system: T-47D breast
TK-10 renal = test system: TK-10 renal
U251 CNS = test system: U251 CNS
UACC-257 melanoma = test system: UACC-257 melanoma
UACC-62 melanoma = test system: UACC-62 melanoma
UO-31 renal = test system: UO-31 renal
CCRF-CEM leukemia = test system: CCRF-CEM leukemia
HOP-62 NSCLC = test system: HOP-62 NSCLC
K-562 leukemia = test system: K-562 leukemia
MDA-MB-435 = test system: MDA-MB-435
MOLT-4 leukemia = test system: MOLT-4 leukemia
SK-MEL-2 melanoma = test system: SK-MEL-2 melanoma
SR leukemia = test system: SR leukemia

`O=C(Nc1ccccc1)N1N=C(c2ccccc2)C1c1ccccc1` (stereo not given) showed a TGI (786-0 renal) of 36.6 µM, a TGI (A498 renal) of 42.7 µM and a TGI (A549 NSCLC) greater than 100 µM. It also gave a TGI (ACHN renal) of 65.8 µM, a TGI (BT-549 breast) of 64.4 µM and a TGI (CAKI-1 renal) of 95.3 µM. It also gave a TGI (COLO 205 colon) greater than 100 µM, a TGI (DU-145 prostate) greater than 100 µM and a TGI (EKVX NSCLC) greater than 100 µM. It also gave a TGI (HCC-2998 colon) greater than 100 µM, a TGI (HCT-116 colon) of 44.8 µM and a TGI (HCT-15 colon) greater than 100 µM. The TGI (HL-60(TB) leukemia) was greater than 100 µM, the TGI (HOP-92 NSCLC) was 91.9 µM and the TGI (HS 578T breast) was 60.7 µM. It also gave a TGI (HT29 colon) of 39.8 µM, a TGI (IGROV1 ovarian) greater than 100 µM and a TGI (KM12 colon) greater than 100 µM. It also gave a TGI (LOX IMVI melanoma) of 89.6 µM, a TGI (M14 melanoma) of 60.4 µM and a TGI (MALME-3M melanoma) of 64.2 µM. The TGI (MCF7 breast) was 51.8 µM, the TGI (MDA-MB-231 breast) was greater than 100 µM and the TGI (MDA-N) was 70.7 µM. The TGI (NCI-H226 lung) was 37.3 µM, the TGI (NCI-H23 lung) was 72.1 µM and the TGI (NCI-H460 lung) was greater than 100 µM. It also gave a TGI (NCI-H522 lung) of 37 µM, a TGI (NCI/ADR-RES ovarian) of 82.2 µM and a TGI (OVCAR-3 ovarian) of 42.1 µM. The TGI (OVCAR-4 ovarian) was greater than 100 µM, the TGI (OVCAR-5 ovarian) was greater than 100 µM and the TGI (OVCAR-8 ovarian) was greater than 100 µM. For the same molecule, the TGI (PC-3 prostate) was 35.3 µM, the TGI (RPMI-8226 leukemia) was 30.6 µM and the TGI (RXF 393 renal) was 44.5 µM. It also gave a TGI (SF-268 CNS) of 50.8 µM, a TGI (SF-295 CNS) of 73.8 µM and a TGI (SF-539 CNS) of 34.5 µM. It also gave a TGI (SK-MEL-28 melanoma) greater than 100 µM, a TGI (SK-MEL-5 melanoma) of 54.7 µM and a TGI (SK-OV-3 ovarian) greater than 100 µM. The TGI (SN12C renal) was greater than 100 µM, the TGI (SNB-19 CNS) was greater than 100 µM and the TGI (SNB-75 CNS) was 32 µM. The TGI (SW-620 colon) was greater than 100 µM, the TGI (T-47D breast) was greater than 100 µM and the TGI (TK-10 renal) was greater than 100 µM. It also gave a TGI (U251 CNS) greater than 100 µM, a TGI (UACC-257 melanoma) greater than 100 µM and a TGI (UACC-62 melanoma) of 45.7 µM. The TGI (UO-31 renal) was 69.6 µM.

`COC1(OC)N=C(N)C2(C#N)/C(=N/N(C)C)CC(C)C12C#N` (stereo not given) gave a TGI (786-0 renal) greater than 100 µM, a TGI (A498 renal) greater than 100 µM and a TGI (A549 NSCLC) greater than 100 µM. The TGI (ACHN renal) was greater than 100 µM, the TGI (CAKI-1 renal) was greater than 100 µM and the TGI (CCRF-CEM leukemia) was greater than 100 µM. For the same molecule, the TGI (COLO 205 colon) was greater than 100 µM, the TGI (DU-145 prostate) was greater than 100 µM and the TGI (EKVX NSCLC) was greater than 100 µM. It also gave a TGI (HCC-2998 colon) greater than 100 µM, a TGI (HCT-116 colon) greater than 100 µM and a TGI (HCT-15 colon) greater than 100 µM. For the same molecule, the TGI (HL-60(TB) leukemia) was greater than 100 µM, the TGI (HOP-62 NSCLC) was greater than 100 µM and the TGI (HOP-92 NSCLC) was greater than 100 µM. For the same molecule, the TGI (HS 578T breast) was greater than 100 µM, the TGI (HT29 colon) was greater than 100 µM and the TGI (IGROV1 ovarian) was greater than 100 µM. For the same molecule, the TGI (K-562 leukemia) was greater than 100 µM, the TGI (KM12 colon) was greater than 100 µM and the TGI (LOX IMVI melanoma) was greater than 100 µM. The TGI (M14 melanoma) was greater than 100 µM, the TGI (MALME-3M melanoma) was greater than 100 µM and the TGI (MCF7 breast) was greater than 100 µM. For the same molecule, the TGI (MDA-MB-231 breast) was greater than 100 µM, the TGI (MDA-MB-435) was greater than 100 µM and the TGI (MDA-N) was greater than 100 µM. The TGI (MOLT-4 leukemia) was greater than 100 µM, the TGI (NCI-H226 lung) was greater than 100 µM and the TGI (NCI-H23 lung) was greater than 100 µM. The TGI (NCI-H522 lung) was greater than 100 µM, the TGI (NCI/ADR-RES ovarian) was greater than 100 µM and the TGI (OVCAR-5 ovarian) was greater than 100 µM. It also gave a TGI (OVCAR-8 ovarian) greater than 100 µM, a TGI (PC-3 prostate) greater than 100 µM and a TGI (RXF 393 renal) greater than 100 µM. For the same molecule, the TGI (SF-268 CNS) was greater than 100 µM, the TGI (SF-295 CNS) was greater than 100 µM and the TGI (SF-539 CNS) was greater than 100 µM. It also gave a TGI (SK-MEL-2 melanoma) greater than 100 µM, a TGI (SK-MEL-28 melanoma) greater than 100 µM and a TGI (SK-MEL-5 melanoma) greater than 100 µM. It also gave a TGI (SK-OV-3 ovarian) greater than 100 µM, a TGI (SN12C renal) greater than 100 µM and a TGI (SNB-19 CNS) greater than 100 µM. It also gave a TGI (SNB-75 CNS) greater than 100 µM, a TGI (SR leukemia) greater than 100 µM and a TGI (SW-620 colon) greater than 100 µM. It also gave a TGI (T-47D breast) greater than 100 µM, a TGI (TK-10 renal) greater than 100 µM and a TGI (U251 CNS) greater than 100 µM. The TGI (UACC-257 melanoma) was greater than 100 µM, the TGI (UACC-62 melanoma) was greater than 100 µM and the TGI (UO-31 renal) was greater than 100 µM.

`COc1cc(/C=C2\C[C@H]3[C@@H]4CC=C5C[C@@H](N6CCCC6)CC[C@]5(C)[C@H]4CC[C@]3(C)[C@H]2OC(C)=O)cc(OC)c1OC` was tested, and the TGI (786-0 renal) was 23.3 µM, the TGI (A498 renal) was 28.7 µM and the TGI (A549 NSCLC) was 32 µM. For the same molecule, the TGI (ACHN renal) was 32.9 µM, the TGI (BT-549 breast) was 28.1 µM and the TGI (CAKI-1 renal) was 32.6 µM. The TGI (CCRF-CEM leukemia) was greater than 100 µM, the TGI (COLO 205 colon) was 25.6 µM and the TGI (DU-145 prostate) was 32.9 µM. For the same molecule, the TGI (EKVX NSCLC) was 27.3 µM, the TGI (HCC-2998 colon) was 10.4 µM and the TGI (HCT-116 colon) was 30.5 µM. It also gave a TGI (HCT-15 colon) of 25.1 µM, a TGI (HL-60(TB) leukemia) of 65.7 µM and a TGI (HOP-62 NSCLC) of 29.3 µM. It also gave a TGI (HOP-92 NSCLC) of 22.3 µM, a TGI (HS 578T breast) of 35.1 µM and a TGI (HT29 colon) of 21.6 µM. For the same molecule, the TGI (IGROV1 ovarian) was 29.9 µM, the TGI (KM12 colon) was 31.2 µM and the TGI (M14 melanoma) was 31.9 µM. It also gave a TGI (MALME-3M melanoma) of 38.1 µM, a TGI (MCF7 breast) of 29.8 µM and a TGI (MDA-MB-231 breast) of 29.8 µM. It also gave a TGI (MDA-MB-435) of 26.8 µM, a TGI (MDA-N) of 23.3 µM and a TGI (MOLT-4 leukemia) of 22.5 µM. For the same molecule, the TGI (NCI-H226 lung) was 48.3 µM, the TGI (NCI-H23 lung) was 28.5 µM and the TGI (NCI-H522 lung) was 30.4 µM. The TGI (NCI/ADR-RES ovarian) was 30.9 µM, the TGI (OVCAR-3 ovarian) was 29.8 µM and the TGI (OVCAR-4 ovarian) was 34.8 µM. The TGI (OVCAR-5 ovarian) was 29.7 µM, the TGI (OVCAR-8 ovarian) was 28.7 µM and the TGI (PC-3 prostate) was 27.2 µM. It also gave a TGI (RPMI-8226 leukemia) of 29.6 µM, a TGI (RXF 393 renal) of 27 µM and a TGI (SF-268 CNS) of 27.7 µM. The TGI (SF-295 CNS) was 26.5 µM, the TGI (SK-MEL-2 melanoma) was 31.6 µM and the TGI (SK-MEL-28 melanoma) was 34.1 µM. For the same molecule, the TGI (SK-MEL-5 melanoma) was 28.4 µM, the TGI (SK-OV-3 ovarian) was 29.1 µM and the TGI (SN12C renal) was 27.8 µM. It also gave a TGI (SNB-19 CNS) of 34.2 µM, a TGI (SNB-75 CNS) of 29.4 µM and a TGI (SW-620 colon) of 34.7 µM. It also gave a TGI (T-47D breast) of 44.8 µM, a TGI (TK-10 renal) of 34.8 µM and a TGI (U251 CNS) of 29.2 µM. It also gave a TGI (UACC-257 melanoma) of 33.8 µM, a TGI (UACC-62 melanoma) of 31.7 µM and a TGI (UO-31 renal) of 30 µM.
